Here are results for two compounds from PubChem BioAssay AID190 (DTP/NCI, 2004).

Each structure is given as a SMILES string. “And” between values parts separate entries of the source, which are not always exact repeats. Equal entries are not always repeated. Toxic doses and inconclusive results are not listed.

In this experiment the test system is AKR/Lw mice, AKR lymphoma ip, median survival T/C. As to the kind of experiment: NCI In Vivo Anticancer Drug Screen. Data for tumor model Lymphoma AKR (Transplanted) (intraperitoneal) in AKR/Lw mice. Particulars: endpoint: median survival time, higher = longer survival. Here is the method:
The antitumor activity of compounds was measured in mice bearing transplantable tumors. Survival or tumor size were measured and the results are expressed as the measurement made in the treated group (T) divided by the measurement made in the vehicle treated control group (C). The tumor model used in this assay is Lymphoma AKR (Transplanted) (intraperitoneal) in AKR/Lw mice

Regarding `Nc1ccn(C2OC(CO)C(O)C2O)c(=O)n1` (configuration not stated), the T/C runs as follows: (dose: 0.18 mg/kg/injection, schedule: Q01DX009 (ip), vehicle: saline) 87 % of control; (dose: 0.25 mg/kg/injection, schedule: Q01DX015 (ip), vehicle: saline) 86 % of control; (dose: 0.37 mg/kg/injection, schedule: Q01DX009 (ip), vehicle: saline) 96 % of control; (dose: 0.5 mg/kg/injection, schedule: Q01DX015 (ip), vehicle: saline) 93 % of control; (dose: 0.75 mg/kg/injection, schedule: Q01DX009 (ip), vehicle: saline) 100 % of control; (dose: 1.0 mg/kg/injection, schedule: Q01DX015 (ip), vehicle: saline) 100 % of control. Also, the T/C was 94 % of control (dose: 3.12 mg/kg/injection, schedule: Q04DX003 (ip), vehicle: saline); 150 % of control (dose: 5.0 mg/kg/injection, schedule: Q01DX009 (ip), vehicle: saline); 150 % of control (dose: 5.0 mg/kg/injection, schedule: Q03HX032 (ip), vehicle: saline); 150 % of control (dose: 10.0 mg/kg/injection, schedule: Q03HX032 (ip), vehicle: saline); 94 % of control (dose: 12.5 mg/kg/injection, schedule: Q04DX003 (ip), vehicle: saline); 97 % of control (dose: 15.0 mg/kg/injection, schedule: Q01DX009 (ip), vehicle: saline with Tween-80). For the same compound, the T/C (dose: 15.0 mg/kg/injection, schedule: Q04DX003 (ip), vehicle: saline) is 120 % of control; the T/C (dose: 18.75 mg/kg/injection, schedule: Q06HX004 (ip), vehicle: saline) is 150 % of control; the T/C (dose: 18.75 mg/kg/injection, schedule: Q06HX016 (ip), vehicle: saline) is 170 % of control; the T/C (dose: 18.8 mg/kg/injection, schedule: Q04DX003 (ip), vehicle: saline) was 87 % of control; the T/C (dose: 19.0 mg/kg/injection, schedule: Q04DX003 (ip), vehicle: saline) was 100 % of control; the T/C (dose: 25.0 mg/kg/injection, schedule: Q01DX001 (ip), vehicle: saline) is 97 % of control. The T/C (dose: 25.0 mg/kg/injection, schedule: Q04DX003 (ip), vehicle: saline) is 100 % of control; the T/C (dose: 40.0 mg/kg/injection, schedule: Q06HX012 (ip), vehicle: saline) was 96 % of control; the T/C (dose: 50.0 mg/kg/injection, schedule: Q01DX001 (ip), vehicle: saline) is 94 % of control and 100 % of control; the T/C (dose: 50.0 mg/kg/injection, schedule: Q04DX003 (ip), vehicle: saline) is 100 % of control; the T/C (dose: 100.0 mg/kg/injection, schedule: Q01DX001 (ip), vehicle: saline) is 100 % of control; the T/C (dose: 100.0 mg/kg/injection, schedule: Q01DX009 (ip), vehicle: saline) was 87 % of control and 96 % of control. Moreover, the T/C was 59 % of control (dose: 150.0 mg/kg/injection, schedule: Q03HX016 (ip), vehicle: saline) and 110 % of control (dose: 400.0 mg/kg/injection, schedule: Q04DX003 (ip), vehicle: saline).

With `COc1cc([C@@H]2c3cc4c(cc3C[C@H]3COC(=O)[C@@H]32)OCO4)cc(OC)c1OC`, the T/C (dose: 5.0 mg/kg/injection, schedule: Q01DX009 (ip), vehicle: Klucel (hydroxypropylcellulose) (HPC)) is 107 % of control.
